Experimental data: US10285382B2 (priority 2017, dated 2019)
“And” between values parts separate entries of the source, which are not always exact repeats. Equal values may be shown once. Read-outs that look alike come from different tables or passages of the source.

Legend:
bacteria growing on TSA = conditions: for number of bacteria growing on TSA: test room, DHP about 0.1 ppm, FIGS. 13A-B
Influenza A (H1N1) = tested on: Influenza A (H1N1)
Experimental: Glass slides (1″×3″) are ethanol-sanitized and autoclaved prior to testing. The slides (carriers) are placed into sterile plastic petri dishes until use. Aliquots (0.010 ml) of diluted stock Influenza A (H1N1) are aseptically spread over a 1″×1″ square area of the carrier slide to prepare a virus film.
Virus Control carriers are placed into an adjacent modular room with the lids removed. One additional glass slide (with no virus film) is also placed into each testing chamber to perform cytotoxicity and neutralization validation controls. Upon closure of the respective study contact times (T=60 min and T=120 min), duplicate carriers are removed from each testing chamber. Duplicate carriers are also removed from the control modular room at each time point. Duplicate time zero carriers are harvested and enumerated promptly by eluting the films with 2 ml of Influenza Infection Medium. Serial dilutions (1:10) are performed and dilutions 10^−1 to 10^−5 are plated in quadruplicate onto Madin-Darby Canine Kidney (MDCK) cell monolayers prepared to suitable confluency. Cell culture assay trays are incubated at 35° C. on an orbital rotator (60 rotations/minute) for 60 minutes to facilitate viral-host adsorption. Trays are removed from incubation, and Influenza infection Media is pipetted into each well (˜1.0 ml). The trays are incubated for 7 days. The assay trays are observed regularly for the presence of cytotoxicity, viral cytopathic effects, and contamination. At the end of 7 days, plates are scored and the Spearman-Karber Method is used to compute viral titers and levels of cytotoxicity.

Salmonella = conditions: hatchery environment (egg room and incubators); after 28 days
chicks = tested on: chicks
Excerpt: The chicks hatched according to the methods of Examples 2 and 3 are shipped to a broiler facility and raised to maturity. No additional changes to grow-out methods are made. A total of about 4 million eggs are set per month and the saleable chicks are sent to the grow-out facility. […] The wholesale price of a broiler is currently estimated at $0.85 per pound. […] See the http:///.nationalchickencouncil.org available on the web.

[1] = tested on: S. aureus ATCC 33592 (MRSA)
bacteria = conditions: end of test period (0, 7, and 30 days), three locations; from about 70 total; FIGS. 9A-C
Experimental: In addition, bacterial contamination in the egg room is assessed by placing blood agar plates at three locations in the room (East, North, and West) at 0, 7, and 30 days, and bacterial growth is assessed after 24 hours.

Aspergillus fumigatus = tested on: Aspergillus fumigatus
Excerpt: (§1) Hatcheries and chick production facilities are subject to heavy bacterial loads that are difficult to control. In addition to the animals themselves, there is a significant contamination of the facilities from the outside.

Other blue green = tested on: Other blue green
Excerpt: as §1

Total bacteria = tested on: Total bacteria
Excerpt: as §1

[2] = tested on: Gram-negative enteric bacilli; conditions: egg cooler conditions
[3] = Hood Chamber, 60 minutes contact
[4] = Hood Chamber, 120 minutes contact
[5] = Modular Room, 60 minutes contact, DHP 0.6 to 1.0 ppm
[6] = Modular Room, 120 minutes contact, DHP 0.6 to 1.0 ppm
[7] = 6 Hours contact, Hood (Treated)
[8] = 6 Hours contact, Room (Treated)
[9] = 24 Hours contact, Hood (Treated)
[10] = 24 Hours contact, Room (Treated)
[11] = 48 Hours contact, Hood (Treated)
[12] = 48 Hours contact, Room (Treated)

OO [DHP, dry hydrogen peroxide]
TSA growth (bacteria growing on TSA; egg cooler conditions, treatment, 0 to 120 hours): static until 120 hours | number of bacteria growing on TSA (bacteria growing on TSA; after 72 hours (P=0.05)): significantly reduced | number of bacteria growing on TSA (bacteria growing on TSA; after 120 hours (P=0.05)): significantly reduced | % Reduction (Influenza A (H1N1); [3]): 99.8% | Log10 reduction (Influenza A (H1N1); [3]): >=2.62 | % Reduction (Influenza A (H1N1); [4]): 98.6% | Log10 reduction (Influenza A (H1N1); [4]): >=1.87 | % Reduction (Influenza A (H1N1); [5]): 87% | Log10 reduction (Influenza A (H1N1); [5]): 0.87 | % Reduction (Influenza A (H1N1); [6]): 76% | Log10 reduction (Influenza A (H1N1); [6]): 0.62 | reduction of Salmonella on the egg surface (Salmonella): 83.3% | Mortality Rate (chicks; After DHP treatment, grow-out facility): 2.2% | Net increase (# Broilers) (chicks; After DHP treatment, per month): 308,678 | reduction of mortality (chicks; at the grow-out facility): about 7.8% | increase in overall production (chicks; per month): over 300,000 broilers | % Reduction compared to Control [1, 7]: 95.150% | Average CFU/Carrier [1, 7]: 2.51E+05 CFU/Carrier | Log Reduction compared to Control [1, 7]: 1.31 | Replicate CFU/Carrier [1, 7]: 1.62E+05 CFU/Carrier and 3.40E+05 CFU/Carrier | % Reduction compared to Control [1, 8]: 83.053% | Average CFU/Carrier [1, 8]: 8.77E+05 CFU/Carrier | Log Reduction compared to Control [1, 8]: 0.77 | Replicate CFU/Carrier [1, 8]: 2.54E+05 CFU/Carrier and 1.50E+06 CFU/Carrier | % Reduction compared to Control [1, 9]: >66.667% | Average CFU/Carrier [1, 9]: <1.50E+01 CFU/Carrier | Log Reduction compared to Control [1, 9]: >0.48 | Replicate CFU/Carrier [1, 9]: 2.50E+01 CFU/Carrier and <5.00E+00 CFU/Carrier | % Reduction compared to Control [1, 10]: >88.889% | Average CFU/Carrier [1, 10]: <5.00E+00 CFU/Carrier | Log Reduction compared to Control [1, 10]: >0.95 | Replicate CFU/Carrier [1, 10]: 5.00E+00 CFU/Carrier and <5.00E+00 CFU/Carrier | % Reduction compared to Control [1, 11]: >78.947% | Average CFU/Carrier [1, 11]: <1.00E+01 CFU/Carrier | Log Reduction compared to Control [1, 11]: >0.68 | % Reduction compared to Control [1, 12]: >89.474% | Average CFU/Carrier [1, 12]: <5.00E+00 CFU/Carrier | Log Reduction compared to Control [1, 12]: >0.98 | Replicate CFU/Carrier [1, 12]: <5.00E+00 CFU/Carrier | number of bacterial colonies on the blood agar plates, total (bacteria): about 30 | Kill (Aspergillus fumigatus): 49999 | Reduction (Aspergillus fumigatus): 99.99% | Post (Aspergillus fumigatus; hatchery after DHP): 1 | Kill (Other blue green): 49983 | Reduction (Other blue green): 99.89% | Post (Other blue green; hatchery after DHP): 56 | reduction of bacterial loads in hatcheries (Total bacteria; DHP treatment): over 90% | Kill (Total bacteria; Total (sum of all categories)): 650019 | Post (Total bacteria; Total (sum of all categories)): 50167 | Kill (Total bacteria; Total bacteria): 550037 | Reduction (Total bacteria; Total bacteria): 91.65% | Post (Total bacteria; Total bacteria, hatchery after DHP): 50110 | growth on Mac at 72 hours compared to 0 hours ([2]; treated group, FIG. 14): significantly less growth | Mac growth ([2]; treatment, 0 to 120 hours): low throughout | Percent Saleable Chicks (hatching eggs; After DHP treatment): 80.82% | Saleable Chick (average) (hatching eggs; After DHP treatment, 4,000,000 eggs set per month): 3,318,400 | Net increase (# Chicks) (hatching eggs; After DHP treatment, from each 4,000,000 eggs set): 62,000 | After Modification Cull Rate (%) (hatching eggs; August 2016): 1.58% | After Modification First Quality Chick (% Hatched) (hatching eggs; August 2016): 79.90% | After Modification Cull Rate (%) (hatching eggs; Average June-November 2016): 1.65% | After Modification First Quality Chick (% Hatched) (hatching eggs; Average June-November 2016): 80.82% | cull rate lower than the cull rate before DHP modification (hatching eggs; DHP modified egg room): at least 1% | After Modification Cull Rate (%) (hatching eggs; July 2016): 1.88% | After Modification First Quality Chick (% Hatched) (hatching eggs; July 2016): 79.78% | After Modification Cull Rate (%) (hatching eggs; June 2016): 2.09% | After Modification First Quality Chick (% Hatched) (hatching eggs; June 2016): 78.62% | After Modification Cull Rate (%) (hatching eggs; November 2016): 1.41% | After Modification First Quality Chick (% Hatched) (hatching eggs; November 2016): 82.96% | After Modification Cull Rate (%) (hatching eggs; October 2016): 1.32% | After Modification First Quality Chick (% Hatched) (hatching eggs; October 2016): 82.55% | After Modification Cull Rate (%) (hatching eggs; September 2016): 1.63% | After Modification First Quality Chick (% Hatched) (hatching eggs; September 2016): 81.09% | percent hatching of first quality chicks (hatching eggs; after installation of DHP to the setter incubator environment (room about 0.5 ppm), FIG. 6): 83% | cull rate (hatching eggs; eggs incubated under DHP conditions, FIG. 7): continues to drop | additional birds available for shipping to the grow-out facility (hatching eggs; installation of DHP in the egg room): about 4,000 birds
